The values that follow come from patent US5939437A, “CCK and gastrin receptor ligands” (James Black Foundation Limited, priority 1994, dated 1999).

Test [1] has as its target T1, CCKA (Cavia porcellus, UniProt Q63931).
T1 construct: The pancreatata were homogenised in 40 ml ice-cold HEPES buffer; from tissue; host or cells: pancreas membranes of male Dunkin Hartley guinea-pigs
T1 sequence (Q63931 1-430): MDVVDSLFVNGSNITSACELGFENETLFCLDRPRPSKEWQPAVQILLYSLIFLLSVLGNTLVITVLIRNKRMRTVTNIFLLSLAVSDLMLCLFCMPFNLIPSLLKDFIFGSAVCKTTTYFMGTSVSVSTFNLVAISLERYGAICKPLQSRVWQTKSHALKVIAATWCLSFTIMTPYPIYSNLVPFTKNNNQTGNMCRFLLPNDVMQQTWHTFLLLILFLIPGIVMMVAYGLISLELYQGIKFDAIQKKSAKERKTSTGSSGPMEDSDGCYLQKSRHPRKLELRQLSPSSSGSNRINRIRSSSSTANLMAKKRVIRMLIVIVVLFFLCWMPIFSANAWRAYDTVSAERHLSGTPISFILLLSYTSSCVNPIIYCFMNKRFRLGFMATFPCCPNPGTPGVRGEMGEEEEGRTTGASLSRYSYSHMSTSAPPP
Nature of the test: CCKA binding assay (guinea-pig pancreas membranes). As to conditions: [125I]-CCK8(S) 200 pM, 0.375 μM PD134,308 present, 150 minutes at 21±3° C.; for Ki: read-out: CCKA pKi (converted). The protocol:
The compounds of the examples were also tested in a CCKA binding assay as follows:
The pancreatata were removed from male guinea-pigs (200-300 g; Dunkin Hartley) and placed in ice-cold HEPES buffer (pH 7.2@21 ±3° C.). The pancreatata were homogenised in 40 ml ice-cold HEPES buffer using a polytron (Brinkman, PT10, setting 10) 4×1 second. The homogenate was centrifuged at 39,800 g for 15 min at 4° C. The supernatant was discarded and the pellet re-suspended using a Teflon-in-glass homogeniser in 20 volumes of fresh buffer and re-centrifuged as above. The final pellet was re-suspended using a Teflon-in-glass homogeniser to a tissue concentration of 1 mg.ml^-1 (original wet weight), and filtered through 500 μm pore-size Nytex mesh.
The membranes (400 μl; containing 0.375 μM PD134,308) are incubated for 150 minutes at 21±3° C. in a final volume of 0.5 ml with HEPES buffer containing [^125 I]-CCK8 (S) (50 μl; 200 pM) and competing compound. Total and non-specific binding of [^125 I]-CCK^8 (S) are defined using 50 μl of buffer and 50 μl of 100 nM L-364,718respectively. The assay is terminated by rapid filtration through pre-soaked Whatman GF/B filters using a Brandell Cell Harvester. The filters were washed (3×3 ml) with ice-cold 50 mM Tris HCl (pH 7.4 at 4° C. and bound radioactivity is determined by counting (1 min) in a gamma counter.

For test [2], the target named is T2, Gastrin (Rattus norvegicus, UniProt P30553).
T2 construct: The stomach was excised and flushed with ca. 1 ml unbuffered physiological saline solution; from tissue; host or cells: isolated whole stomach of immature rats (33-50 g, ca. 21 days old)
T2 sequence (P30553 1-452): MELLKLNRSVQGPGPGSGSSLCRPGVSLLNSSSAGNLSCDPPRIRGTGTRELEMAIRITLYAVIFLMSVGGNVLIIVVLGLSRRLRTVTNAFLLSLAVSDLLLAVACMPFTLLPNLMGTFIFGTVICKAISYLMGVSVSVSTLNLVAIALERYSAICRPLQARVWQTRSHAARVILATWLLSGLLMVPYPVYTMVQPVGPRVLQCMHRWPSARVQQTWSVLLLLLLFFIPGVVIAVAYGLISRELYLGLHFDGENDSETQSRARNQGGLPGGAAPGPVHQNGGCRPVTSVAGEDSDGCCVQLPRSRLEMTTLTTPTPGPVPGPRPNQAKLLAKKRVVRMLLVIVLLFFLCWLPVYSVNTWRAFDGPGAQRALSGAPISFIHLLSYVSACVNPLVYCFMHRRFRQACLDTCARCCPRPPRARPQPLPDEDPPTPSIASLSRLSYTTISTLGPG
Nature of the test: gastrin antagonist activity in an immature rat stomach assay (pentagastrin-stimulated acid secretion, isolated stomach). As to conditions: cumulative pentagastrin dose-response curves, 60 min after drug; for Kb: read-out: Gastrin pKB (converted). How it is done: The compounds of the examples were also tested for gastrin antagonist activity in an immature rat stomach assay. The procedure was follows:
The oesophagus of immature rats (33-50 g, ca. 21 days old) was ligated at the level of the cardiac sphincter and the duodenal sphincter was cannulated. The stomach was excised and flushed with ca. 1 ml unbuffered physiological saline solution. The fundus was punctured and cannulated. A further 4-5 ml of unbuffered solution was flushed through the stomach to ensure the preparation was not leaking. The stomach was lowered into a jacketed organ bath containing 40 ml of buffered solution containing 3×10^-8 M5methylfurmethide, maintained at 37° and gassed vigorously with 95% O2 /5% CO2. The stomach was continuously perfused at a rate of 1 ml min^-1 with unbuffered solution gassed with 100% O2 with the perfusate passing over an internally referenced pH-electrode fixed 12 cm above the stomach.
After 120 min of stabilisation the drugs were added directly to the serosal solution in the organ bath and after a further 60 min cumulative pentagastrin dose-response curves were started. Changes in acid secretion were monitored and the curves analysed according to Black et. al., Br. J. Pharmacol., 1985, 86, 581.

For test [3], the target named is T3, CCKB (Mus musculus, UniProt P56481).
T3 construct: The cortex was dissected, weighed and homogenised in 40 ml ice-cold buffer; from tissue; host or cells: cerebral cortex membranes of male CD1 mice (Charles River)
T3 sequence (P56481 1-453): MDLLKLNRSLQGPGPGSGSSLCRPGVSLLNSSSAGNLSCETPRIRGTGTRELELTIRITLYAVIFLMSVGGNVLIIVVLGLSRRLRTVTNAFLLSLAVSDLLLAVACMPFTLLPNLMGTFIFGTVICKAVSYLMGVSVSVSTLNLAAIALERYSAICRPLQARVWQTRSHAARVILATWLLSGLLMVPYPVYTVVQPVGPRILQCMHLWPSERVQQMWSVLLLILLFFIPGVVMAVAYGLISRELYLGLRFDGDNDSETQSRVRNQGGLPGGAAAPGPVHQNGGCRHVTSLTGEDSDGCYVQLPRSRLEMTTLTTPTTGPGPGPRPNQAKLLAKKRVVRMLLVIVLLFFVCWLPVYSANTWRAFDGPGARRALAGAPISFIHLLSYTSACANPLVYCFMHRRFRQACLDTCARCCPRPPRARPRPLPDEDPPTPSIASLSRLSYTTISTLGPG
The test can be described thus: radioligand binding assay at the CCKB (CCK8 [sic]) receptor in mouse cortical membranes. As to conditions: [125I]-CCK8S 200 pM, 150 min at 21±3° C.; for Ki: read-out: CCKB pKi (converted). The protocol: The compounds of the examples were tested for binding at the CCK8 receptor in mouse cortical membranes by means of a radioligand binding assay. The procedure was as follows: The whole brains from male mice (CD1 22-25 g; Charles River) were removed and placed in ice-cold buffer (pH7.2@21±3° C.) of the following composition (mM); 10 HEPES, 130 NaCl, 4.7 KCl, 5 MgCl2, 1 EDTA and containing 0.25 g.1^-1 bacitracin. The cortex was dissected, weighed and homogenised in 40 ml ice-cold buffer using a Teflon-in-glass homogeniser. The homogenate was centrifuged at 39,800 g for 20 min at 4° C., the supernatant discarded and the pellet resuspended by homogenisation in fresh buffer. The homogenate was recentrifuged (39,800 g; 20 min@4° C.) and the final pellet was resuspended in HEPES buffer to give a tissue concentration of 2 mg.ml^-1 (original wet weight). The membranes ([…]) were incubated for 150 min at 21±3° C. in a final volume of 0.5 ml with HEPES buffer containing [^25 I]-CCK8S (0.05 ml; 200 pM NEN 2200 Ci.mmol^-1) and competing compound. Total and non-specific binding of [^125 I]-CCK8S were defined using 0.05 ml of buffer and 0.05 ml of […] L-365,260, respectively. The assay was terminated by rapid filtration through pre-soaked Whatman GF/B 35 filters using a Brandell Cell harvester. The filters were washed (3×3 ml) with ice-cold 5 mM Tris-HCl (pH7.4@4° C.) and bound radioactivity determined by counting (1 min.) in a gamma-counter.

For `Nc1ccc(C(=O)NCC23CC4CC(CC(C4)C2)C3)c(C(=O)N[C@@H](Cc2ccccc2)C(=O)Nc2cc(C(=O)O)cc(C(=O)O)c2)c1` [Example 17, 1-(1S-(3,5-dicarboxyphenylamino-carbonyl)-2-phenylethylaminocarbonyl)-2-(1-adamantanemethyl-aminocarbonyl)-5-aminobenzene], the values for the Ki in test [1] and in test [3] were 12600 nM and 50.1 nM, respectively. Further, the Kb in test [2] was 20 nM.
The matching figures for `O=C(O)c1cc(NC(=O)[C@H](Cc2ccccc2)NC(=O)c2cccc3c2C(=O)N(CC24CC5CC(CC(C5)C2)C4)C3)cc(C(=O)O)c1` [Example 26, 7-(1S-(3,5-dicarboxyphenylamino-carbonyl)-2-phenylethylaminocarbonyl)-2-(1-adamantanemethyl)indol-1-one]: 3160 nM, 100 nM and 63.1 nM.
The matching figures for `Nc1ccc(C(=O)N[C@@H](Cc2ccccc2)C(=O)Nc2cc(C(=O)O)cc(C(=O)O)c2)c(C(=O)NCC23CC4CC(CC(C4)C2)C3)c1` [Example 16, 1-(1S-(3,5-dicarboxyphenylamino-carbonyl)-2-phenylethylaminocarbonyl)-2-(1-adamantanemethyl-25 aminocarbonyl)-4-aminobenzene]: 3980 nM, 200 nM and 63.1 nM.
As for `O=C(O)c1cc(NC(=O)[C@H](Cc2ccccc2F)NC(=O)c2ccccc2C(=O)NCC23CC4CC(CC(C4)C2)C3)cc(C(=O)O)c1` [Example 4], the “CCKA pKi” value in test [1] turned out to be 5.3. The “Gastrin pKB” value in test [2] came out at 7.7. Moreover, the “CCKB pKi” value in test [3] turned out to be 7.0.
The matching figures for `O=C(O)c1cc(NC(=O)[C@H](Cc2ccccc2)NC(=O)c2cocc2C(=O)NCC23CC4CC(CC(C4)C2)C3)cc(C(=O)O)c1` [Example 12, 3-(1S-(3,5-dicarboxyphenylamino-carbonyl)-2-phenylethylaminocarbonyl)-4-(1-adamantanemethyl-aminocarbonyl)furan]: 5.2, 6.5 and 6.3.
The matching figures for `O=C(O)c1cc(NC(=O)[C@H](Cc2ccccc2)NC(=O)c2ccccc2C(=O)NCC2CCCCCC2)cc(C(=O)O)c1` [Example 7, (1R-(3,5-dicarboxyphenylaminocarbonyl)-2-phenylethylaminocarbonyl)-2-(cycloheptanemethylaminocarbonyl)-benzene]: 5.9, 6.3 and 6.5.
